Test results reported in publication PMC12737022, “Evaluations of Sex Differences in Dosimetry in Rats Following Perfluorohexanesulfonamide (PFHxSA) Oral Exposure” (Toxics, 2025).
“And” between values parts separate entries of the source, which are not always exact repeats. Identical values can stand only once. Like-named read-outs stand apart in the source and are kept apart here.

What was measured:
[1] = In vitro-in vivo extrapolation (IVIVE) to estimate Css, human
Method: (§1) Intrinsic hepatic clearance (Clint) and fraction unbound in plasma (fup) were calculated from the experimental point estimate data as described in Dobreniecki et al.. Steady-state concentrations (Css) were derived based on zero-order uptake of an assumed daily dose from the gut (assuming 100% intestinal bioavailability) but considering hepatic clearance and non-metabolic renal clearance. Renal clearance was calculated using the glomerular filtration rate (a species-dependent constant) and the fraction unbound in blood (fub), estimated by adjusting the experimental fup for blood/plasma partitioning. The Css calculations, along with underlying species-specific physiologic scalars, are detailed in SI Texts S6 and S7. […]
(§2) hepatocytes). In equation (C), the scalar 2000 is used to adjust the assay cell number to be consistent with units of 1 million cells in the Clint equation.
(§3) Text S7 In Vitro-In Vivo Extrapolation (IVIVE) Calculations
(§4) The pharmacokinetic equation used to estimate expected steady-state concentrations (Css) is based on zero-order uptake of a daily dose from the gut (assuming 100% bioavailability) with both nonmetabolic renal clearance (Clrenal) and hepatic clearance (Clhepatic) (Equation D). The chemical input rate (ko) is the product of the intake dosage and the model body weight; this represents the numerator of Equation D. The Clrenal calculation is shown in the first part of the denominator of Equation D; it is the product of the species-dependent glomerular filtration rate (GFR) and the unbound fraction in blood (fub) of the parent compound. The Clhepatic calculation is shown in the second part of the denominator of Equation D; it is the product of the species-dependent liver blood flow constant, the fub of the parent compound, and the experimentally derived intrinsic clearance (shown in Equation C) divided by the sum of these three values. All values used in Equation D are for first-order conditions of metabolism in the […]

[2] = tested on: human hepatocytes; design: method as in Crizer et al. [59]; conditions: ref Crizer et al. [59]; cited from earlier work
[3] = In vitro-in vivo extrapolation (IVIVE) to estimate Css, rat
Method: as §1, §2, §3, §4

[4] = Liver dosimetry of PFHxSA and PFHxS by targeted LC/MS/MS; type: in vivo, rat; conditions: for concentration at 24 h: Sprague Dawley (Crl:CD(SD)), rat, liver, oral
Excerpt: The plasma and liver samples for this investigation were provided by Mutlu et al.. The study design, including detailed descriptions of animal handling, procedures for dosing, clinical observations, termination, and collection of tissues, is reported elsewhere and is consistent with the ARRIVE guidelines. Briefly, male and female Sprague Dawley (SD) rats (Crl:CD(SD)) (n = 48/sex, 96 total) were purchased from Charles River Laboratory (Raleigh, NC, USA) and allowed to acclimate for ≥5 days before initial dosing. Rats were 8–10 weeks old at the time of exposure. PFHxSA dosing solutions in corn oil were prepared on Day 0 and used over the course of the study. Rats of both sexes (n = 5/sex, dose, and time point, plus eight vehicle controls per sex) were dosed by oral gavage (5 mL/kg body weight) once daily for five days. […] The formulation concentrations decreased from 100 mg/kg/day at half-log10 intervals until the lowest dose level, which was a full log10 interval below the next higher dose, giving eight dose levels (0.01 to 100 mg/kg/day or 0.025 µmol/kg/day to 250 µmol/kg/day) in addition to vehicle controls. Doses were administered in randomized order within ± 1 h on each day of dosing. […] Rats were euthanized 24 h after the last dose. Blood was collected via cardiac puncture with tripotassium ethylene diamine tetraacetic acid (K3EDTA) as an anti-coagulant and centrifuged to collect cell-free plasma. Liver was collected and flash-frozen in liquid nitrogen. Liver, plasma, and dosing formulation samples were frozen at the USEPA Center for Computational Toxicology and Exposure (CCTE), Durham, NC, USA. Tissue samples (plasma and liver, n = 96 each) were stored at ≤−70 °C prior to extraction; dosing formulation samples (n = 9) were stored at −20 °C.
Detailed information on solvents and standards used for targeted LC/MS/MS of PFHxSA and PFHxS can be found in SI Text S1 and SI Table S1. Plasma and liver preparations were modified from Conley et al.. Briefly, aliquots of plasma (25 µL) and liver (~10 mg) were spiked with PFOSA as an internal standard, as no isotope-labeled PFHxSA was available. Sample batches included up to 96 samples along with an MB, CCV, and LCS for QC. Commercial plasma (mixed-sex SD rat plasma) and liver (mixed-sex SD rat) were obtained from BioIVT (Westbury, NY, USA). Cold acetonitrile (ACN) with 0.1 M formic acid was used to precipitate proteins. Liver and plasma samples were prepared similarly, except that the livers were homogenized after solvent addition. Plasma samples were vortexed to mix before being chilled at −20 °C, after which samples were centrifuged at 5 °C and 10,000× g. Liver samples were chilled at −80 °C, then homogenized using an Omni International (Kennesaw, GA, USA) Bead Ruptor 24. Liver homogenates were centrifuged at 26,000× g and 5 °C. Supernatants from the extraction of both matrices were removed and stored at −20 °C until analysis. Refer to SI Text S4 for additional experimental details and information on calibration and QC parameters for quantitation of PFHxSA.
Targeted LC/MS/MS of PFHxSA was performed on a Sciex 4000 QTRAP LC/MS/MS system operated in negative ESI mode with MRM scanning. A Restek (Bellefonte, PA, USA) Raptor Polar X (100 mm × 2 mm, 2.7 µm) column was used for liquid chromatography. Isocratic elution occurred over 10 min with a 30:70 ratio of mobile phase A (10 mM ammonium formate): mobile phase B (60:40 ACN: methanol). Both mobile phases included 0.05% formic acid. The LOQs for PFHxSA were 0.100 µM in plasma and 0.351 µM in liver. Additional details of the instrument method parameters for targeted analysis of PFHxSA are provided in SI Table S5. The MRM transitions for the PFHxSA method are provided in SI Table S6. […]

With `NS(=O)(=O)C(F)(F)C(F)(F)C(F)(F)C(F)(F)C(F)(F)C(F)(F)F` [PFHxSA, Perfluorohexanesulfonamide] the “Css (steady-state concentration)” value ([1]; Human, IVIVE-derived, assumes 1 mg/kg/day exposure) was 1510 µM, the CL renal ([1]; Human, non-metabolic, GFR x fub, read-out: Clrenal (renal clearance) (converted)) was 0.0817 mL/min and the “Predicted Css in humans higher than rats” value ([1]; cross-species IVIVE comparison) was 3- to 10 fold. For the same compound, the “Clhep (hepatic clearance)” value [2] was 0 ^2 L/h, the “Css (steady-state concentration)” value ([3]; Rat, IVIVE-derived, assumes 1 mg/kg/day exposure) was 138 µM and the CL renal ([3]; Rat, non-metabolic, GFR x fub, read-out: Clrenal (renal clearance) (converted)) was 0.00167 mL/min. The “IVIVE-derived Css higher than in vivo plasma concentration” value ([3]; rat, 1 mg/kg/day, female and male rat plasma, respectively) was 6.5–12.1 fold and 6.5–12 fold, the “PFHxSA Female Liver Conc. (wet weight)” value ([4]; PFHxSA 0.1 mg/kg/day oral 5 days, female, individual rats) was 0.491 µM and 0.599 µM and 0.338 µM and 0.434 µM and the “PFHxSA Male Liver Conc. (wet weight)” value ([4]; PFHxSA 0.1 mg/kg/day oral 5 days, male, individual rats) was 0.191 ng/mg and 0.0842 ng/mg and 0.479 µM and 0.211 µM and 0.156 ng/mg and 0.391 µM and 0.746 µM and 0.503 µM and 0.298 ng/mg and 0.201 ng/mg. For the same compound, the “PFHxSA Female Liver Conc. (wet weight)” value ([4]; PFHxSA 0.3 mg/kg/day oral 5 days, female, individual rats) was 1.47 µM and 1.96 µM and 1.26 µM and 1.74 µM, the “PFHxSA Male Liver Conc. (wet weight)” value ([4]; PFHxSA 0.3 mg/kg/day oral 5 days, male, individual rats) was 0.462 ng/mg and 0.399 ng/mg and 1.26 µM and 0.604 µM and 1.30 µM and 1.16 µM and 1.00 µM and 0.503 ng/mg and the “PFHxSA Female Liver Conc. (wet weight)” value ([4]; PFHxSA 1 mg/kg/day oral 5 days, female, individual rats) was 2.91 µM and 2.52 µM and 4.17 µM and 4.76 µM and 6.64 µM. The “PFHxSA Male Liver Conc. (wet weight)” value ([4]; PFHxSA 1 mg/kg/day oral 5 days, male, individual rats) was 0.846 ng/mg and 1.00 ng/mg and 1.09 ng/mg and 1.18 ng/mg and 2.12 µM and 2.51 µM and 2.73 µM and 2.97 µM, the “PFHxSA Female Liver Conc. (wet weight)” value ([4]; PFHxSA 3 mg/kg/day oral 5 days, female, individual rats) was 7.94 µM and 4.86 µM and 6.40 µM and 9.55 µM and 10.8 µM and the “PFHxSA Male Liver Conc. (wet weight)” value ([4]; PFHxSA 3 mg/kg/day oral 5 days, male, individual rats) was 1.92 ng/mg and 1.86 ng/mg and 1.63 ng/mg and 2.14 ng/mg and 4.81 µM and 4.67 µM and 4.08 µM and 5.36 µM. For the same compound, the “PFHxSA Female Liver Conc. (wet weight)” value ([4]; PFHxSA 10 mg/kg/day oral 5 days, female, individual rats) was 6.97 µM and 8.65 µM and 7.58 µM and 9.86 µM, the “PFHxSA Male Liver Conc. (wet weight)” value ([4]; PFHxSA 10 mg/kg/day oral 5 days, male, individual rats) was 5.65 ng/mg and 3.24 ng/mg and 4.53 ng/mg and 4.26 ng/mg and 14.2 µM and 8.13 µM and 11.4 µM and 10.7 µM and the “PFHxSA Female Liver Conc. (wet weight)” value ([4]; PFHxSA 30 mg/kg/day oral 5 days, female, individual rats) was 15.8 ng/mg and 7.72 ng/mg and 10.1 ng/mg and 8.88 ng/mg and 23.9 µM and 39.6 µM and 19.4 µM and 25.2 µM and 22.3 µM. For the same compound, the “PFHxSA Male Liver Conc. (wet weight)” value ([4]; PFHxSA 30 mg/kg/day oral 5 days, male, individual rats) was 4.86 ng/mg and 3.36 ng/mg and 4.47 ng/mg and 6.25 ng/mg and 12.2 µM and 8.43 µM and 11.2 µM and 15.7 µM, the “PFHxSA Female Liver Conc. (wet weight)” value ([4]; PFHxSA 100 mg/kg/day oral 5 days, female, individual rats) was 20.7 ng/mg and 12.3 ng/mg and 37.7 ng/mg and 20.9 ng/mg and 16.1 ng/mg and 52.0 µM and 30.8 µM and 94.6 µM and 52.3 µM and 40.3 µM and the “PFHxSA Male Liver Conc. (wet weight)” value ([4]; PFHxSA 100 mg/kg/day oral 5 days, male, individual rats) was 14.9 ng/mg and 19.0 ng/mg and 6.87 ng/mg and 4.89 ng/mg and 5.61 ng/mg and 37.4 µM and 47.6 µM and 17.2 µM and 12.3 µM. For the same compound, the concentration at 24 h ([4]; female, 0.1 mg/kg/day, PFHxSA 0.1 mg/kg/day oral 5 days, female, individual rats, read-out: PFHxSA Female Liver Conc. (wet weight)) was 436 nM and 174 ng/g, the concentration at 24 h ([4]; female, 0.3 mg/kg/day, PFHxSA 0.3 mg/kg/day oral 5 days, female rats, mean ± SD, read-out: PFHxSA Female Liver Conc.) was 1.69 ± 0.32 µM and the concentration at 24 h ([4]; female, 0.3 mg/kg/day, PFHxSA 0.3 mg/kg/day oral 5 days, female, individual rats, read-out: PFHxSA Female Liver Conc. (wet weight)) was 2.03 µM and 811 ng/g. For the same compound, the concentration at 24 h ([4]; female, 1 mg/kg/day, PFHxSA 1 mg/kg/day oral 5 days, female rats, mean ± SD, read-out: PFHxSA Female Liver Conc.) was 4.2 ± 1.6 µM, the concentration at 24 h ([4]; female, 3 mg/kg/day, PFHxSA 3 mg/kg/day oral 5 days, female rats, mean ± SD, read-out: PFHxSA Female Liver Conc.) was 7.91 ± 2.4 µM and the concentration at 24 h ([4]; female, 10 mg/kg/day, PFHxSA 10 mg/kg/day oral 5 days, female rats, mean ± SD, read-out: PFHxSA Female Liver Conc.) was 8.41 ± 1.1 µM. For the same compound, the concentration at 24 h ([4]; female, 10 mg/kg/day, PFHxSA 10 mg/kg/day oral 5 days, female, individual rats, read-out: PFHxSA Female Liver Conc. (wet weight)) was 8.98 µM and 3580 ng/g, the concentration at 24 h ([4]; female, 30 mg/kg/day, PFHxSA 30 mg/kg/day oral 5 days, female rats, mean ± SD, read-out: PFHxSA Female Liver Conc.) was 26.1 ± 7.9 µM and the concentration at 24 h ([4]; male, 0.3 mg/kg/day, PFHxSA 0.3 mg/kg/day oral 5 days, male rats, mean ± SD, read-out: PFHxSA Male Liver Conc.) was 1.06 ± 0.28 µM. For the same compound, the concentration at 24 h ([4]; male, 1 mg/kg/day, PFHxSA 1 mg/kg/day oral 5 days, male rats, mean ± SD, read-out: PFHxSA Male Liver Conc.) was 2.48 ± 0.39 µM, the concentration at 24 h ([4]; male, 1 mg/kg/day, PFHxSA 1 mg/kg/day oral 5 days, male, individual rats, read-out: PFHxSA Male Liver Conc. (wet weight)) was 821 ng/g and 2.06 µM and the concentration at 24 h ([4]; male, 3 mg/kg/day, PFHxSA 3 mg/kg/day oral 5 days, male rats, mean ± SD, read-out: PFHxSA Male Liver Conc.) was 4.67 ± 0.47 µM. For the same compound, the concentration at 24 h ([4]; male, 3 mg/kg/day, PFHxSA 3 mg/kg/day oral 5 days, male, individual rats, read-out: PFHxSA Male Liver Conc. (wet weight)) was 1780 ng/g and 4.45 µM, the concentration at 24 h ([4]; male, 10 mg/kg/day, PFHxSA 10 mg/kg/day oral 5 days, male rats, mean ± SD, read-out: PFHxSA Male Liver Conc.) was 10.6 ± 2.5 µM and the concentration at 24 h ([4]; male, 10 mg/kg/day, PFHxSA 10 mg/kg/day oral 5 days, male, individual rats, read-out: PFHxSA Male Liver Conc. (wet weight)) was 3370 ng/g and 8.44 µM. For the same compound, the concentration at 24 h ([4]; male, 30 mg/kg/day, PFHxSA 30 mg/kg/day oral 5 days, male rats, mean ± SD, read-out: PFHxSA Male Liver Conc.) was 11.6 ± 2.6 µM and the concentration at 24 h ([4]; male, 30 mg/kg/day, PFHxSA 30 mg/kg/day oral 5 days, male, individual rats, read-out: PFHxSA Male Liver Conc. (wet weight)) was 4320 ng/g and 10.8 µM.
